Laboratory results published in ChEMBL document CHEMBL4680369, “Synthesis of HDAC Inhibitor Libraries via Microscale Workflow” (ACS Med Chem Lett, 2021).

Legend:
[1] = target: T1, Histone deacetylase 1 (Homo sapiens, UniProt Q13547); test: Inhibition of HDAC1 (unknown origin) using compound purified by microgram-scale HPLC work-flow
[2] = target: T2, Histone deacetylase 2 (Homo sapiens, UniProt Q92769); test: Inhibition of HDAC2 (unknown origin) using compound purified by microgram-scale HPLC work-flow
[3] = target: T1, Histone deacetylase 1; test: Inhibition of HDAC1 (unknown origin) using compound purified by traditional preparative HPLC work-flow
[4] = target: T2, Histone deacetylase 2; test: Inhibition of HDAC2 (unknown origin) using compound purified by traditional preparative HPLC work-flow

T1 sequence (Q13547 whole entry): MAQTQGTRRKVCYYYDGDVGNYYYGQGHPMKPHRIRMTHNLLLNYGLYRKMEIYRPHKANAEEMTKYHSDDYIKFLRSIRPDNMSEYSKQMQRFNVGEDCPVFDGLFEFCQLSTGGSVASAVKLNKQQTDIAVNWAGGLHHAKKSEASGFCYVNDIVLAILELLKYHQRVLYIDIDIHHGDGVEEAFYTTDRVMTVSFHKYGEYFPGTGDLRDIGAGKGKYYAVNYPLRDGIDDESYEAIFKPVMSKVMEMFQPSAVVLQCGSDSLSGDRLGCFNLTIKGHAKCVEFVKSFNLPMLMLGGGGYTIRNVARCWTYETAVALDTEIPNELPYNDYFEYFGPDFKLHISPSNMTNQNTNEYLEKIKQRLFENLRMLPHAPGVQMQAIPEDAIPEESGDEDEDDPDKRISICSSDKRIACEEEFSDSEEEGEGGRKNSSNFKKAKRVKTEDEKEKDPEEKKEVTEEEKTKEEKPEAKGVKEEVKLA
T2 sequence (Q92769 whole entry): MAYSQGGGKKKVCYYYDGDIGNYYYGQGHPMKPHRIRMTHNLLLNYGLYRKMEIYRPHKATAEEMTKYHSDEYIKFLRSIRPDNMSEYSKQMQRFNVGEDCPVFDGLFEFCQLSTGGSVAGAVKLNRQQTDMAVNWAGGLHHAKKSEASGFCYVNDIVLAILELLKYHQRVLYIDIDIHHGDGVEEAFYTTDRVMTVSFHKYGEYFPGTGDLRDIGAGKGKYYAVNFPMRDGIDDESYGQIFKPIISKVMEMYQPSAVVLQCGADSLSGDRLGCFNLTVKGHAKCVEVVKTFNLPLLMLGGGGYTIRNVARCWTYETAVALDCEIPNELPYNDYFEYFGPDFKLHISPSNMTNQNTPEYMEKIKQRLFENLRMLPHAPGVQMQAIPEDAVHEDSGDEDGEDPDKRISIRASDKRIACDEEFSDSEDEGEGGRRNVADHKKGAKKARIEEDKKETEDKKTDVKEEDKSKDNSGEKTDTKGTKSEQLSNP

Row | IC50 [1] [nM] | IC50 [2] [nM] | IC50 [3] [nM] | IC50 [4] [nM] | Compound
1 | 102 | 491 |  |  | CCC(=O)CCCCC[C@H](NC(=O)[C@H]1CC12CCN(C)CC2)c1ncc(-c2cnc(-n3cc(C)cn3)nc2)[nH]1
2 | 22 | 133 | 36 | 179 | CCC(=O)CCCCC[C@H](NC(=O)[C@H]1CC12CCN(C)CC2)c1ncc(-c2ccnc(N3CCOCC3)c2F)[nH]1
3 | 44 | 249 | 70 | 350 | CCC(=O)CCCCC[C@H](NC(=O)[C@H]1CC12CCN(C)CC2)c1ncc(-c2ccn3ncnc3c2)[nH]1
4 | 7.8 | 43 |  |  | CCC(=O)CCCCC[C@H](NC(=O)[C@H]1CC12CCN(CC)CC2)c1ncc(-c2cc([N+](=O)[O-])ccc2OC)[nH]1
5 | 11 | 70 | 9.1 | 54 | CCC(=O)CCCCC[C@H](NC(=O)[C@H]1CC12CCN(C)CC2)c1ncc(-c2ccc(C(=O)NC3CCOC3)cc2)[nH]1 (some centres not stated)
6 | 14 | 92 | 28 | 161 | CCC(=O)CCCCC[C@H](NC(=O)[C@H]1CC12CCN(C)CC2)c1ncc(-c2cnc3cccnc3c2)[nH]1
7 | 12 | 70 | 14 | 64 | CCC(=O)CCCCC[C@H](NC(=O)[C@H]1CC12CCN(C)CC2)c1ncc(-c2ccc(-n3nc(C)cc3C)cc2)[nH]1
8 | 63 | 279 |  |  | CCC(=O)CCCCC[C@H](NC(=O)[C@H]1CC12CCN(CC)CC2)c1ncc(-c2cc(C(C)C)c(F)cc2OC)[nH]1
9 | 302 | 1660 | 343 | 1590 | CCC(=O)CCCCC[C@H](NC(=O)[C@H]1CC12CCN(C)CC2)c1ncc(C2=CC(=O)N(C)CC2)[nH]1
10 | 14 | 1.4 |  |  | CCC(=O)CCCCC[C@H](NC(=O)[C@H]1CC12CCN(CC)CC2)c1ncc(C2=CCC(C)N=C2OC)[nH]1 (some centres not stated)
11 | 22 | 320 |  |  | CCC(=O)CCCCC[C@H](NC(=O)[C@H]1CC12CCN(CC)CC2)c1ncc(-c2c(F)cc(C(=O)Nc3cc(C(F)(F)F)ccn3)cc2OC)[nH]1
12 | 31 | 154 |  |  | CCC(=O)CCCCC[C@H](NC(=O)[C@H]1CC12CCN(CC)CC2)c1ncc(-c2cc(C(=O)OC)c(F)cc2OC)[nH]1
13 | 1.1 | 9.1 |  |  | CCOC(=O)c1cc2cc(OC)c(-c3cnc([C@H](CCCCCC(=O)CC)NC(=O)[C@H]4CC45CCN(CC)CC5)[nH]3)cc2o1
14 | 3.2 | 18 | 3.7 | 19 | CCC(=O)CCCCC[C@H](NC(=O)[C@H]1CC12CCN(C)CC2)c1ncc(-c2ccc(C)nc2OC)[nH]1
15 | 119 | 87 |  |  | CCC(=O)CCCCC[C@H](NC(=O)[C@H]1CC12CCN(CC)CC2)c1ncc(-c2ccc(C(=O)Nc3cc(C(F)(F)F)ccn3)cc2OC)[nH]1
16 | 6.9 | 39 |  |  | CCOC(=O)C1CC1c1ccc(OC)c(-c2cnc([C@H](CCCCCC(=O)CC)NC(=O)[C@H]3CC34CCN(CC)CC4)[nH]2)c1 (some centres not stated)
17 |  |  | 0.5 | 2.9 | CCC(=O)CCCCC[C@H](NC(=O)[C@H]1CC12CCN(C)CC2)c1ncc(-c2cn(C)c3ccccc23)[nH]1
18 | 609 | 1550 |  |  | CCC(=O)CCCCC[C@H](NC(=O)[C@H]1CC12CCN(CC)CC2)c1ncc(-c2c(OC)ccc(F)c2F)[nH]1
19 | 100 | 583 | 143 | 749 | CCOc1ncc(-c2cnc([C@H](CCCCCC(=O)CC)NC(=O)[C@H]3CC34CCN(C)CC4)[nH]2)cn1
20 | 1.8 | 16 |  |  | CCC(=O)CCCCC[C@H](NC(=O)[C@H]1CC12CCN(CC)CC2)c1ncc(-c2cc(C(F)(F)F)ccc2OC)[nH]1
21 | 2.6 | 14 | 6.5 | 30 | CCC(=O)CCCCC[C@H](NC(=O)[C@H]1CC12CCN(C)CC2)c1ncc(-c2ccc(-c3cccnc3)nc2)[nH]1
22 |  |  |  | 1.1 | CCC(=O)CCCCC[C@H](NC(=O)[C@H]1CC12CCN(C)CC2)c1ncc(-c2ccc3[nH]c4ccccc4c3c2)[nH]1
23 | 12 | 62 |  |  | CCC(=O)CCCCC[C@H](NC(=O)[C@H]1CC12CCN(CC)CC2)c1ncc(-c2cc(C#N)ccc2OC)[nH]1
24 | 72 | 370 |  |  | CCC(=O)CCCCC[C@H](NC(=O)[C@H]1CC12CCN(CC)CC2)c1ncc(-c2c(F)cccc2OC)[nH]1
25 | 13 | 63 |  |  | CCC(=O)CCCCC[C@H](NC(=O)[C@H]1CC12CCN(CC)CC2)c1ncc(-c2cccc(C(F)(F)F)c2OC)[nH]1
